Measurements as given in patent publication US20240277716A1, “Suppressive T Cell Populations and Methods of Cancer Immunotherapy” (La Jolla Institute for Immunology, priority 2021, published 2024).

What was measured:
[1] = system: heavily-pretreated patients with either CLL or non-Hodgkin lymphoma; details: cited from earlier work
[2] = system: patients with resectable head and neck squamous cell carcinoma (HNSCC); assay type: in vivo, human
From the text: PI3Kδ inhibition causes irAEs. To evaluate the potential for PI3Kδ inhibitors as immunotherapeutic agents in human solid cancers, the inventors administered the PI3Kδi AMG319 to treatment-naive patients with resectable head and neck squamous cell carcinoma (HNSCC) in a neoadjuvant, double-blind, placebo-controlled randomized phase II trial. The inventors measured target inhibition (pAKT levels in B cells and drug levels to verify drug administration. Thirty-three patients were randomized in a 2:1 ratio (AMG319:Placebo) to the trial and 30 patients received at least one dose of AMG319 or placebo. Fifteen patients received 400 mg daily of AMG319 (range of 7-24 days per patient). Unexpectedly, at the 400 mg dose, 9/15 patients experienced irAEs that lead to withdrawal of treatment. After a formal safety review, 6 additional patients were recruited and treated at a reduced dose of 300 mg per day. Again, 3/6 patients had irAEs that led to discontinuation of treatment. One patient experienced grade 4 colitis after completion of 24 daily doses of AMG319 and eventually required colectomy (FIG. 4A). The most prevalent irAEs were skin rashes (29%; 25% observed in the treatment group and 4% in placebo group), diarrhea (29%; 28% in observed treatment group and 1% in placebo group) and transaminitis (14% all in the treatment group), consistent with a treatment-mediated loss of TREG cells or TREG cell functionality in multiple tissues causing immunopathology.
Double blind, randomized clinical trial and sample collection. In order to explore the immunomodulatory effects of PI3Kδ inhibition in humans, the inventors conducted a multicenter, placebo-controlled phase II neoadjuvant trial with the PI3Kδi AMG319 in resectable HNSCC, www.clinicaltrialsregister.eu/ctr-search/trial/2014-004388-20/results). All patients have provided written informed consent for participation in the clinical trial. The inventors studied Human Papilloma Virus (HPV)-negative HNSCC, as this cancer type is more prevalent, and because patients with this cancer type have poorer outcomes when compared to HPV-positive HNSCC, likely due to overall lower tumor-infiltrating lymphocyte (TIL) infiltration^31-33. The clinical trial was sponsored by Cancer Research UK Center for Drug Development (CRUKD/15/004) and approved by the Southampton and South West Hampshire Research Ethics Board; the trial EudraCT number is 2014-004388-20. Detailed information about the trial design, randomization procedure, protocol amendments, recruitment data, patient characteristics and adverse events are deposited at www.clinicaltrialsregister.eu/ctr-search/trial/2014-004388-20/results #morelnformationSection and found in the CONSORT checklist. Patients were recruited after initial diagnosis and before definitive surgical treatment; drug treatment or placebo was given for up to 24 or 28 days respectively, prior to resection of tumor. […] The inventors reasoned that high-grade irAEs were unlikely to occur during the shorter treatment duration in the neoadjuvant setting, and therefore selected 400 mg/day as the starting dose. The intended time from initiating treatment with AMG319 or placebo to surgical resection of tumor was up to 4 weeks, with weekly blood draws. The full evaluation of radiological measurements has previously been reported at https://www.clinicaltrialsregister.eu/ctr-search/trial/2014-004388-20/results to the EU Clinical Trials Register in compliance with regulatory requirements. Primary endpoints were safety and assessment of CD8^+ immune infiltrates, secondary endpoints tumor responses and AMG319 pharmacokinetic evaluation (https://www.clinicaltrialsregister.eu/ctr-search/trial/2014-004388-20/results#endPointsSection). The sample size was calculated as follows: in a pilot cohort, the CD8 count in the biopsy taken at diagnosis, and in the resected tissue sample was quantified. […]

[3] = system: circulating TREG cells; assay: Phase II trial: circulating TREG cells; set-up: species or system human; details: in vivo
From the text: Double blind, randomized clinical trial and sample collection. In order to explore the immunomodulatory effects of PI3Kδ inhibition in humans, the inventors conducted a multicenter, placebo-controlled phase II neoadjuvant trial with the PI3Kδi AMG319 in resectable HNSCC, www.clinicaltrialsregister.eu/ctr-search/trial/2014-004388-20/results). All patients have provided written informed consent for participation in the clinical trial. The inventors studied Human Papilloma Virus (HPV)-negative HNSCC, as this cancer type is more prevalent, and because patients with this cancer type have poorer outcomes when compared to HPV-positive HNSCC, likely due to overall lower tumor-infiltrating lymphocyte (TIL) infiltration^31-33. The clinical trial was sponsored by Cancer Research UK Center for Drug Development (CRUKD/15/004) and approved by the Southampton and South West Hampshire Research Ethics Board; the trial EudraCT number is 2014-004388-20. […] The sample size was calculated as follows: in a pilot cohort, the CD8 count in the biopsy taken at diagnosis, and in the resected tissue sample was quantified. […]

[4] = system: tumor-infiltrating TREG cells and CD8+ T cells in HNSCC tumor tissue; assay: Phase II trial: tumor RNA-seq, sorted CD8+ T cell RNA-seq and FOXP3 immunohistochemistry, pre- vs post-treatment; assay type: in vivo, human
From the text: Double blind, randomized clinical trial and sample collection. In order to explore the immunomodulatory effects of PI3Kδ inhibition in humans, the inventors conducted a multicenter, placebo-controlled phase II neoadjuvant trial with the PI3Kδi AMG319 in resectable HNSCC, www.clinicaltrialsregister.eu/ctr-search/trial/2014-004388-20/results). All patients have provided written informed consent for participation in the clinical trial. The inventors studied Human Papilloma Virus (HPV)-negative HNSCC, as this cancer type is more prevalent, and because patients with this cancer type have poorer outcomes when compared to HPV-positive HNSCC, likely due to overall lower tumor-infiltrating lymphocyte (TIL) infiltration^31-33. The clinical trial was sponsored by Cancer Research UK Center for Drug Development (CRUKD/15/004) and approved by the Southampton and South West Hampshire Research Ethics Board; the trial EudraCT number is 2014-004388-20. Detailed information about the trial design, randomization procedure, protocol amendments, recruitment data, patient characteristics and adverse events are deposited at www.clinicaltrialsregister.eu/ctr-search/trial/2014-004388-20/results #morelnformationSection and found in the CONSORT checklist. Patients were recruited after initial diagnosis and before definitive surgical treatment; drug treatment or placebo was given for up to 24 or 28 days respectively, prior to resection of tumor. […] The inventors reasoned that high-grade irAEs were unlikely to occur during the shorter treatment duration in the neoadjuvant setting, and therefore selected 400 mg/day as the starting dose. The intended time from initiating treatment with AMG319 or placebo to surgical resection of tumor was up to 4 weeks, with weekly blood draws. The full evaluation of radiological measurements has previously been reported at https://www.clinicaltrialsregister.eu/ctr-search/trial/2014-004388-20/results to the EU Clinical Trials Register in compliance with regulatory requirements. Primary endpoints were safety and assessment of CD8^+ immune infiltrates, secondary endpoints tumor responses and AMG319 pharmacokinetic evaluation (https://www.clinicaltrialsregister.eu/ctr-search/trial/2014-004388-20/results#endPointsSection). The sample size was calculated as follows: in a pilot cohort, the CD8 count in the biopsy taken at diagnosis, and in the resected tissue sample was quantified. The mean value at diagnosis was 25 cells/high power filed (hpf), and this remained almost the same in the resected sample (26 cells/hpf). […] To detect a standardized difference of 0.5 with 80% power and one-sided test of statistical significance of 20%, 36 patients were randomized to AMG319 and 18 to placebo (54 in total). Randomization was at the level of the individual patient, using block randomization with randomly varying block sizes. During the course of the clinical trial the randomization list was held by the unblinded Trial Statistician and within the IWRS. Patients and care providers were blinded to the treatment allocation, and all immunological evaluations were completed by a pathologist and researchers who were blinded to the patient allocation to treatment arms. […] Patients were eligible if they were >18 years, with histologically proven HNSCC for whom surgery was the primary treatment option, with laboratory results within specified ranges. […]

C[C@H](Nc1ncnc2[nH]cnc12)c1cc2ccc(F)cc2nc1-c1ccccn1 [AMG319]
nodal regression ([1]; daily dosing with 400 mg): > 50% | target inhibition (BCR-induced pAKT in ex vivo IgD-stimulated CLL samples) ([1]; daily dosing with 400 mg): near-complete target inhibition | maximally-tolerated dose ([1]; doses of up to 400 mg explored): without reaching a maximally-tolerated dose | mean half-life in plasma ([1]; human plasma): 3.8 to 6.6 h | occurrence of irAE at grade 3 or above (CTC) ([1]; in vivo): after days 40 and 60 | difference in measured tumor volumes between the study arms ([2]; 23 evaluable patients, AMG319 vs placebo): did not observe any significant differences | patients with partial responses (PR) ([2]; AMG319-treated, all also grade 3/4 irAEs): Two | patients with complete pathological response ([2]; AMG319-treated, also grade 3/4 irAEs): one | diarrhea observed in the treatment group ([2]; human, in vivo): 28% | median time to onset of irAEs ([2]; human, in vivo): 9 days | skin rashes observed in the treatment group ([2]; human, in vivo): 25% | transaminitis ([2]; human, in vivo): 14% | patients with grade 4 colitis, eventually required colectomy ([2]; in vivo): One | activated circulating TREG cells [3]: significant increase | expression of IFNG, GZMB and PRF1 in sorted tumor-infiltrating CD8+ T cells ([4]; post-treatment samples, bulk RNA-seq): higher expression | differentially expressed genes, sorted CD8+ T cells ([4]; post-treatment vs remaining samples): 455 genes | FOXP3 transcript levels in the tumor samples ([4]; pre- vs post-treatment): significant reduction | differentially-expressed genes, whole tumor RNA-seq ([4]; pre- vs post-treatment tumor samples): 93 DEGs | intratumoral TREG cells (FOXP3+ cells, immunohistochemistry) ([4]; short interval between stopping treatment and assessment): significantly reduced
